One block for each compound: values may come before it.
Experiments:
[1] = test system: IL-6 production in IL-1-stimulated PBMCs; test: Inhibition of IL-6 production in IL-1-stimulated PBMCs; format: cell-based; settings: Homo sapiens, PBMC; IL-1b-stimulated PBMCs, ELISA, overnight incubation
Experimental: (§1) This assay was carried out on PBMCs exactly the same as above except that 50 μl of an IL-1b working stock solution (2 ng/ml in cell culture medium) was added to the assay instead of the (LPS) working stock solution.
(§2) Cell culture supernatants were harvested as described above and analyzed by ELISA for levels of IL-6 (Endogen, #EH2-IL6) and IL-8 (Endogen, #EH2-IL8) according to the instructions of the manufacturer. The ELISA data were used to generate dose-response curves from which IC50 values were derived.

[2] = test system: IL-1 production in LPS-stimulated PBMCs; test: Inhibition of IL-1 production in LPS-stimulated PBMCs ("cell"); format: cell-based, human; settings: Homo sapiens, PBMC
Method in brief: (§3)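 Cytokine levels (IL-1β, TNF-α) in culture supernatants quantified by ELISA, with IC50 taken from dose-response curves. Fresh human PBMCs in RPMI1640 with 10% FBS received serially diluted compound plus LPS (4 ng/ml final) and were cultured 12–15 h at 37 °C, 5% CO2.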

[3] = test system: LPS induced PGHS-2 expression in PBMCs; test: Inhibition of LPS-induced prostaglandin endoperoxide synthase-2 (PGHS-2, or COX-2) induction in PBMCs; format: cell-based, human; settings: PBMCs, 0.2, 2.0 and 20 μM compound, LPS 4 ng/ml, overnight, anti-COX-2 immunoblot
Experimental: Human peripheral mononuclear cells (PBMCs) were isolated from fresh human blood buffy coats by centrifugation in a Vacutainer CPT (Becton & Dickinson). We seeded 15×10^6 cells in a 6-well tissue culture dish containing RPMI 1640 supplemented with 10% fetal bovine serum, 50 U/ml penicillin, 50 μg/ml streptomycin, and 2 mM L-glutamine. Compound 6 (above) was added at 0.2, 2.0 and 20 μM final concentrations in DMSO. Then we added LPS at a final concentration of 4 ng/ml to induce enzyme expression. The final culture volume was 10 ml/well.
After overnight incubation at 37° C., 5% CO2, the cells were harvested by scraping and subsequent centrifugation, then the supernatant was removed, and the cells were washed twice in ice-cold DPBS (Dulbecco's phosphate buffered saline, BioWhittaker). The cells were lysed on ice for 10 min in 50 μl cold lysis buffer (20 mM Tris-HCl, pH 7.2, 150 mM NaCl, 1% Triton-X-100, 1% deoxycholic acid, 0.1% SDS, 1 mM EDTA, 2% aprotinin (Sigma), 10 μg/ml pepstatin, 10 μg/ml leupeptin, 2 mM PMSF, 1 mM benzamidine, 1 mM DTT) containing 1 μl Benzonase (DNAse from Merck). The protein concentration of each sample was determined using the BCA assay (Pierce) and bovine serum albumin as a standard. Then the protein concentration of each sample was adjusted to 1 mg/ml with cold lysis buffer. […]

[4] = test system: TNF production in LPS-stimulated PBMCs; test: Inhibition of TNF production in LPS-stimulated PBMCs ("cell"); format: cell-based, human; settings: Homo sapiens, PBMC
Method in brief: as §3

activated p38 [5] = molecular target: T1, activated p38 (Homo sapiens, UniProt Q16539); test: Inhibition of ATPase activity; format: biochemical; settings: ATPase activity of activated p38 (60 nM), 30° C., 30 minutes
T1 sequence (Q16539 whole entry): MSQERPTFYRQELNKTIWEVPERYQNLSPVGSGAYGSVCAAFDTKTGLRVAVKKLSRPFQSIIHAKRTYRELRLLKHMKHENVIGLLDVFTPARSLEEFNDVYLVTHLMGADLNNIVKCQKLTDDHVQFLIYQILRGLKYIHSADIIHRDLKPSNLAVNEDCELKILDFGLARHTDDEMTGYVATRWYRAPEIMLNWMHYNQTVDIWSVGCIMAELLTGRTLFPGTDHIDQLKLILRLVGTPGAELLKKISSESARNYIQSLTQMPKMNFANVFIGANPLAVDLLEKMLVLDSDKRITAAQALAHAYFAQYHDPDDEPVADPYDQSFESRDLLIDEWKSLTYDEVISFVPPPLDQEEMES
Experimental: This assay was carried out in the presence of 10 mM MgCl2, 25 mM β-glycerophosphate, 10% glycerol and 100 mM HEPES buffer at pH 7.6. For a typical Ki determination, the Km for ATP in the ATPase activity of activated p38 reaction was determined in the absence of inhibitor and in the presence of two concentrations of inhibitor. A stock solution was prepared containing all of the above components and activated p38 (60 nM). The stock solution was aliquotted into vials. […] The reaction was initiated by adding various concentrations of ATP and then incubated at 30° C. After 30 minutes, the reactions were quenched with 50 μl of EDTA (0.1 M, final concentration), pH 8.0. The product of p38 ATPase activity, ADP, was quantified by HPLC analysis.
Separation of ADP from ATP was achieved on a reversed phase column (Supelcosil, LC-18, 3 μm, part no. 5–8985) using a binary solvent gradient of following composition: Solvent A—0.1 M phosphate buffer containing 8 mM tetrabutylammonium hydrogen sulfate (Sigma Chemical Co., catalogue no. T-7158), Solvent B—Solvent A with 30% methanol.
Ki was determined from the rate data as a function of inhibitor and ATP concentrations.

activated p38 [6] = molecular target: T1, activated p38; test: Inhibition of phosphorylation of EGF receptor peptide ("kinase"); format: biochemical; settings: inhibition of phosphorylation of EGF receptor peptide by activated p38
Method in brief: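 Activated p38 was preincubated with inhibitor for 15 min at room temperature in 100 mM HEPES pH 7.6, 10 mM MgCl2, 25 mM β-glycerophosphate, 10% glycerol, 5% DMSO final. Reaction used 200 μM EGF receptor peptide and 100 μM ATP for 30 min at 30° C. TFA-quenched phosphopeptide was quantified by reverse-phase HPLC.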

[7] = test system: IL-8 production in IL-1-stimulated PBMCs; test: Inhibition of IL-8 production in IL-1-stimulated PBMCs; format: cell-based; settings: Homo sapiens, PBMC; IL-1b-stimulated PBMCs, ELISA, overnight incubation
Experimental: as §1, §2

- Ki (activated p38 [5]): 400 nM
- IC50 (activated p38 [6]): 100 to 1000 nM
Compound: O=c1ncn2nc(Sc3ccccc3)ccc2c1-c1c(Cl)cccc1Cl [Compound 6]
- IC50 [1]: 600 nM
- IC50 [2]: 100 to 500 nM
- LPS induced PGHS-2 expression [3]: inhibits LPS induced PGHS-2 expression in PBMCs
- IC50 [4]: ≥ 500 nM
- IC50 [7]: 850 nM

Compound: O=c1ncn2nc(Sc3ccccc3)ccc2c1-c1ccc(Cl)cc1Cl [Compound 3]
- Ki (activated p38 [5]): 5000 nM
- IC50 (activated p38 [6]): ≥ 1000 nM

Compound: Cc1ccc(Sc2ccc3c(-c4ccc(Cl)cc4Cl)c(=O)ncn3n2)cc1 [Compound 5]
- Ki (activated p38 [5]): 2900 nM
- IC50 (activated p38 [6]): ≥ 1000 nM

Compound: O=c1ncn2nc(Sc3ccccc3)ccc2c1-c1ccc(F)cc1 [Compound 2]
- Ki (activated p38 [5]): 15000 nM
- IC50 (activated p38 [6]): ≥ 1000 nM

— patent US7205305B2, “Inhibitors of p38” (Vertex Pharmaceuticals Incorporated, priority 1996, dated 2007)
